Laboratory results reported in publication PMC10537553, “Synthesis, DFT Study, and In Vitro Evaluation of Antioxidant Properties and Cytotoxic and Cytoprotective Effects of New Hydrazones on SH-SY5Y Neuroblastoma Cell Lines” (Pharmaceuticals, 2023).
“Also recorded” adds a separate entry of the source.

How the values were obtained:
[1] = ABTS radical scavenging assay; format: biochemical; conditions: for ABTS scavenging activity: 1 mg/mL in methanol, 10 min, 734 nm; for radical scavenging effect (in words): 1 mg/mL, structure-activity discussion of the ABTS/DPPH results
Experimental: During the 2,2′-azino-bis(3-ethylbenzothiazoline-6-sulphonic acid) (ABTS) assay, the discoloration of the initial color could be detected at 734 nm.
The ABTS radical tests were measured according to a modified method of Arnao et al.. The test solutions were dissolved in methanol (1 mg/mL) at ambient temperature. The radical cation of ABTS (ABTS^+•) was created by mixing 7 mmol/L solution of ABTS and 2.4 mmol/L solution of potassium persulphate, which were set to react for 14 h in the dark at room temperature. The working solutions consisted of 2 mL of the stock solution diluted in 50 mL of methanol with an absorbance of […] units at 734 nm. Then, 1 mL of the ABTS working solution was allowed to react with the title compounds for 10 min, with a subsequent absorbance determination. The inhibition percentages were evaluated by applying the same formula as the DPPH assay (4). ABTSscavenging activity = Abscontrol − Abssample/Abscontrol × 100%(4) where Abscontrol is the absorbance of the ABTS radical in methanol, and Abssample is the absorbance of the ABTS radical solution mixed with the sample.

[2] = MTT cell viability assay (cytotoxicity); format: cell-based, human; conditions: human, SH-SY5Y neuroblastoma cells, 1–500 μM, 24 h, MTT
Experimental: (§1) The effects of the newly synthesized N-pyrrolyl-hydrazone derivatives on the cellular viability of neuronal SH-SY5Y cells were evaluated, and the corresponding IC50 values were calculated. In the current study, the cells were seeded at density 2 × 10^4 and were treated with the test compounds at concentrations 1–500 μM for 24 h.
(§2) Human neuroblastoma cell line SH-SY5Y was purchased from European Collection of Cell Cultures (ECACC, Salisbury, UK). SH-SY5Y cells were cultivated in an RPMI 1640 medium supplemented with 10% heat-inactivated FBS, 2 mM L-glutamine, and 1% antibiotics (penicillin/streptomycin). The cell line was incubated at 37 °C with 5% of CO2, and the culture’s medium was replaced with a time interval of 2–3 days.
(§3) The SH-SY5Y cells were plated for 24 h at 37 °C on 96-well plates at a density of 2 × 10^4 cells per well to confluence. After 24 h, the cells were treated with the compounds (1–500 μM). MTT assay was performed to measure the metabolic activity in living cells. The mitochondria succinate dehydrogenase system of living cells metabolized yellow-colored, water-soluble, tetrazolium salt MTT (3-(4,5-dimethylthiazol2-yl)-2,5-diphenyltetrazolium bromide to a purple insoluble formazan crystal. The cells were incubated with the test solutions for 24 h, the MTT solution (10 mg/mL in PBS) was then added to each well, and the mixture was incubated at 37 °C for 3 h. Thereafter, the MTT solution was carefully aspirated, and the obtained formazan crystals were dissolved by the addition of […] DMSO. The cell viability was determined by measuring the optical density −570–690 nm in a multiplate reader Synergy 2 (BioTek Instruments, Inc., Highland Park, Winooski, VT, USA).

SH-SY5Y cells [3] = test: H2O2-induced oxidative stress model, protection by MTT; format: cell-based, human; conditions: H2O2 1 mM, 15 min; for protective effect against H2O2-induced oxidative stress (in words): 1, 10, 20 µM pre-incubation 90 min; for protection at the lowest tested concentration (in words): 1 µM pre-incubation 90 min
Experimental: The cells were pre-incubated with the tested compounds at concentrations 1, 10, and 20 µM for 90 min. Melatonin was used as a reference compound because of its well-established neuroprotective effects in various in vitro and in vivo models. After 90 min pre-incubation with the test substances, SH-SY5Y cells were exposed to H2O2 (1 mM, 15 min), as described in the Materials and Methods section.
as §2
For the H2O2-induced oxidative stress model, SH-SY5Y cells were seeded in 96-well plates at a density of 3.5 × 10^4/well in 100 μL for 24 h. Afterwards, the cell medium was aspirated, and the cells were treated with different concentrations of tested compounds (1, 10, 20 µM) for 90 min; then, the SH-SY5Y cells were washed with phosphate-buffered saline (PBS) and were exposed to the oxidative stress (H2O2 1 mM in PBS, 15 min). The contents of all wells were changed with culture medium. After 24 h, the amount of attached viable cells was evaluated by MTT assay. Negative controls (cells without hydrogen peroxide treatment) were considered as 100% protection, and hydrogen-peroxide-treated cells as 0% protection.

SH-SY5Y cells [4] = test: MTT cell viability assay (cytotoxicity); format: cell-based, human
Experimental: as §1, §2, §3

[5] = DPPH radical scavenging assay; format: biochemical; conditions: 1 mg/mL in methanol, 30 min, 517 nm
Experimental: The 1,1-diphenyl-2-picrylhydrazyl (DPPH) radical scavenging activity of the newly synthesized derivatives was determined at one concentration—1 mg/mL. Trolox was used as a standard.
The scavenging assay of the title compounds against DPPH radical was carried out by the widely employed protocol of Brand-Williams et al.. Briefly, a single concentration of 1 mg/mL for each synthesized compound in methanol was obtained. Subsequent addition of 1 mL of the methanol solution of DPPH (1 mmol/L) was performed. The reaction mixtures were incubated in the dark for 30 min. The absorbance was measured at 517 nm. Three measurements were carried out for each sample; 6-Hydroxy-2,5,7,8- tetramethylchroman-2-carboxylic acid (Trolox) was applied as a standard. The percentage inhibition of the tested samples was calculated by the following Formula (3):DPPHscavenging activity = Abscontrol − Abssample/Abscontrol × 100%(3) where Abscontrol is the absorbance of the DPPH radical in methanol, and Abssample is the absorbance of the DPPH radical solution mixed with the sample.

Row | SMILES | melting point [°C] | ABTS scavenging activity [1] [%] | IC50 at 24 h [2] [µM] | radical scavenging effect (in words) [1] | protective effect against H2O2-induced oxidative stress (in words) (SH-SY5Y cells [3]) | cytotoxicity (in words) (SH-SY5Y cells [4]; 24 h) | protection at the lowest tested concentration (in words) (SH-SY5Y cells [3]) | DPPH scavenging activity [5] [%] | toxicity relative to 7d (times higher) (SH-SY5Y cells [4]; from IC50 values) [times]
1 | CCOC(=O)c1cc(-c2ccc(Br)cc2)n(CC(=O)N/N=C/c2ccc(N(C)C)cc2)c1C [7a, (E)-ethyl 5-(4-bromophenyl)-1-(2-(2-(4-(dimethylamino)benzylidene)hydrazinyl)-2-oxoethyl)-2-methyl-1H-pyrrole-3-carboxylate] | 211.4 to 213.6 | 22 | 55.8 | – | – | – | – | – | –
2 | CCOC(=O)c1cc(-c2ccc(Br)cc2)n(CC(=O)N/N=C/c2ccc(Cl)cc2)c1C [7b, (E)-ethyl 5-(4-bromophenyl)-1-(2-(2-(4-chlorobenzylidene)hydrazinyl)-2-oxoethyl)-2-methyl-1h-pyrrole-3-carboxylate] | 229.4 to 231.2 | – | 67.6 | negligible effect | – | – | – | – | –
3 | CCOC(=O)c1cc(-c2ccc(Br)cc2)n(CC(=O)N/N=C/c2ccc([N+](=O)[O-])cc2)c1C [7c, (E)-ethyl 5-(4-bromophenyl)-2-methyl-1-(2-(2-(4-nitrobenzylidene)hydrazinyl)-2-oxo-ethyl)-1H-pyrrole-3-carboxylate] | 245.9 to 247.2 | – | > 500 | – | most potent protection; also recorded: stronger protective effects | non-toxic | – | – | –
4 | CCOC(=O)c1cc(-c2ccc(Br)cc2)n(CC(=O)N/N=C/c2cc(OC)c(O)c(OC)c2)c1C [7d, (E)-ethyl 5-(4-bromophenyl)-1-(2-(2-(4-hydroxy-3,5-dimethoxybenzylidene)hydrazine-yl)-2-oxoethyl)-2-methyl-1H-pyrrole-3-carboxylate] | 191.9 to 194.4 | 83 | 99.6 | – | better protection in all tested concentrations than the reference compound melatonin; also recorded: stronger protective effects | – | statistically significant protection | 24 | –
5 | CCOC(=O)c1cc(-c2ccc(Br)cc2)n(CC(=O)N/N=C/c2ccc(OC)cc2OC)c1C [7e, (E)-ethyl 5-(4-bromophenyl)-1-(2-(2-(2,4-dimethoxybenzylidene)hydrazinyl)-2-oxo-ethyl)-2-methyl-1H-pyrrole-3-carboxylate] | 206 to 207.6 | – | 63.1 | lack of radical scavenging effects | – | – | statistically significant protection | – | –
6 | COc1ccc2[nH]cc(CCNC(C)=O)c2c1 [Melatonin, reference compound] | – | – | > 500 | – | dose-dependent protective effects | – | – | – | –
7 | Cc1c(C)c2c(c(C)c1O)CCC(C)(C(=O)O)O2 (stereo not drawn) [Trolox, 6-Hydroxy-2,5,7,8-tetramethylchroman-2-carboxylic acid, reference compound] | – | – | – | – | – | – | – | 94 | –

More lines, main results first:

Row | melting point [°C] | SMILES | ABTS scavenging activity [1] [%] | IC50 at 24 h [2] [µM] | radical scavenging effect (in words) [1] | protective effect against H2O2-induced oxidative stress (in words) (SH-SY5Y cells [3]) | cytotoxicity (in words) (SH-SY5Y cells [4]; 24 h) | protection at the lowest tested concentration (in words) (SH-SY5Y cells [3]) | DPPH scavenging activity [5] [%] | toxicity relative to 7d (times higher) (SH-SY5Y cells [4]; from IC50 values) [times]
8 | 212 to 213.3 | CCOC(=O)c1cc(-c2ccc(Br)cc2)n(CCC(=O)N/N=C/c2ccc(N(C)C)cc2)c1C [8a, (E)-ethyl 5-(4-bromophenyl)-1-(3-(2-(4-(dimethylamino)benzylidene)hydrazinyl)-3-oxopropyl)-2-methyl-1H-pyrrole-3-carboxylate] | 48 | 56.3 | – | – | – | – | – | –
9 | 181.4 to 184.6 | CCOC(=O)c1cc(-c2ccc(Br)cc2)n(CCC(=O)N/N=C/c2ccc(Cl)cc2)c1C [8b, (E)-ethyl 5-(4-bromophenyl)-1-(3-(2-(4-chlorobenzylidene)hydrazinyl)-3-oxopropyl)-2-methyl-1H-pyrrole-3-carboxylate] | – | 57.4 | – | – | – | – | – | –
10 | 214.4 to 217.1 | CCOC(=O)c1cc(-c2ccc(Br)cc2)n(CCC(=O)N/N=C/c2ccc([N+](=O)[O-])cc2)c1C [8c, (E)-ethyl 5-(4-bromophenyl)-2-methyl-1-(3-(2-(4-nitrobenzylidene)hydrazinyl)-3-oxopropyl)-1H-pyrrole-3-carboxylate] | – | 58.2 | – | – | – | – | – | –
11 | 196.6 to 197.6 | CCOC(=O)c1cc(-c2ccc(Br)cc2)n(CCC(=O)N/N=C/c2cc(OC)c(O)c(OC)c2)c1C [8d, (E)-ethyl 5-(4-bromophenyl)-1-(3-(2-(4-hydroxy-3,5-dimethoxybenzylidene) hydrazine-yl)-3-oxopropyl)-2-methyl-1H-pyrrole-3-carboxylate] | 89 | 57.3 | – | – | – | – | 19 | 1.7
12 | 170 to 171.9 | CCOC(=O)c1cc(-c2ccc(Br)cc2)n(CCC(=O)N/N=C/c2ccc(OC)cc2OC)c1C [8e, (E)-ethyl 5-(4-bromophenyl)-1-(3-(2-(2,4-dimethoxybenzylidene)hydrazinyl)-3-oxopropyl)-2-methyl-1H-pyrrole-3-carboxylate] | – | 91.1 | lack of radical scavenging effects | lower antioxidant protection; also recorded: lower than melatonin | – | – | – | –
